The record followed here is ChEMBL document CHEMBL4049459, “1,4,5-Trisubstituted Imidazole-Based p53-MDM2/MDMX Antagonists with Aliphatic Linkers for Conjugation with Biological Carriers” (J Med Chem, 2017).

Molecules are shown by their SMILES. Calls of active or inactive are those of the source. No cut-off for these calls is given here.

Assay [1] deals with E3 ubiquitin-protein ligase Mdm2 (Homo sapiens) (UniProt Q00987). Description: Inhibition of p53-MDM2 interaction in human U2OS cells assessed as p53 activation by measuring p21 accumulation at 1 uM after 7 hrs by Western blot analysis. It counts as cell-based.
Sequence of E3 ubiquitin-protein ligase Mdm2 (Homo sapiens) (Q00987 whole entry, looked up): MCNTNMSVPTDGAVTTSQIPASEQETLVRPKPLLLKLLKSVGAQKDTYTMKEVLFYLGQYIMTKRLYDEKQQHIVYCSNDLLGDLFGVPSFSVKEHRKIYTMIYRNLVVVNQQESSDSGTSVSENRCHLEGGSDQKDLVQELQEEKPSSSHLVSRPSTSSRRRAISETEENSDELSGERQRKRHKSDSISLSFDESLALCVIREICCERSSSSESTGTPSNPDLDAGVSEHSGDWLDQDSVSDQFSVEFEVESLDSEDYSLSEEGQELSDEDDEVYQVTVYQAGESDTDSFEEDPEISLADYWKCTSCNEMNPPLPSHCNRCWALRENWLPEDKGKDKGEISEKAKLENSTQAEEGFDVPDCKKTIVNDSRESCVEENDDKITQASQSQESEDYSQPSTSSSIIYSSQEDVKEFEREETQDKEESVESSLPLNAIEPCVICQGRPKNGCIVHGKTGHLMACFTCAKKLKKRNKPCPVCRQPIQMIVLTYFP
Assay [2] relates to U2OS. The assay is described as follows: Cell cycle arrest in wild type p53 expressing human U2OS cells assessed as decrease in accumulation at S phase at 1 uM after 24 hrs by propidium iodide-based FACS analysis. It counts as functional.
Assay [3] concerns the target E3 ubiquitin-protein ligase Mdm2 (Homo sapiens) (UniProt Q00987). The assay is described as follows: Inhibition of p53-MDM2 interaction in human U2OS cells assessed as p53 accumulation at 1 uM after 7 hrs by Western blot analysis. It counts as cell-based.
Assay [4] has the same target. The assay is described as follows: Inhibition of p53-MDM2 interaction in human HCT116 cells assessed as p53 activation by measuring increase in p21 expression at 1 uM after 24 hrs by Western blot analysis. In kind it is cell-based.
For assay [5] the target is unchanged. Description: Inhibition of p53-MDM2 interaction in human U2OS cells assessed as p53 activation by measuring increase in p21 expression at 1 uM after 24 hrs by Western blot analysis. In kind it is cell-based.
Assay [6] deals with U2OS. Description: Cell cycle arrest in wild type p53 expressing human U2OS cells assessed as increase in accumulation at G1 phase at 1 uM after 24 hrs by propidium iodide-based FACS analysis. In kind it is functional.
Assay [7] concerns the target E3 ubiquitin-protein ligase Mdm2 (Homo sapiens) (UniProt Q00987). Description: Inhibition of p53-MDM2 interaction in human U2OS cells assessed as p53 activation by measuring increase in MDM2 expression at 1 uM after 7 hrs by Western blot analysis. It counts as cell-based.
Assay [8] has the same target. The assay is described as follows: Inhibition of p53-MDM2 interaction in human HCT116 cells assessed as p53 activation by measuring increase in MDM2 expression at 1 uM after 7 hrs by Western blot analysis. In kind it is cell-based.
Assay [9] deals with U2OS. The assay is described as follows: cells. The settings on record: Homo sapiens, 24 h.
Description: Cytotoxicity against wild type p53 expressing human U2OS cells assessed as cell growth inhibition after 24 hrs by MTT assay
The nature of assay [10]: Selectivity ratio of IC50 for human Saos2 cells to IC50 for human U2OS cells.
Another assay concerns SAOS-2. The assay is described as follows: cells. The note with it: Homo sapiens, SAOS-2, 24 h.
Assay [11] deals with U2OS. The assay is described as follows: Cell cycle arrest in wild type p53 expressing human U2OS cells assessed as decrease in accumulation at S phase at 5 uM after 24 hrs by propidium iodide-based FACS analysis. In kind it is functional.
Assay [12] relates to U2OS. Description: Cell cycle arrest in wild type p53 expressing human U2OS cells assessed as decrease in accumulation at S phase at 10 uM after 24 hrs by propidium iodide-based FACS analysis. In kind it is functional.
The test system of assay [13] is U2OS. Description: Cell cycle arrest in wild type p53 expressing human U2OS cells assessed as increase in accumulation at G1 phase at 10 uM after 24 hrs by propidium iodide-based FACS analysis. It counts as functional.
In assay [14] the test system is U2OS. The assay is described as follows: Cell cycle arrest in wild type p53 expressing human U2OS cells assessed as increase in accumulation at G1 phase at 5 uM after 24 hrs by propidium iodide-based FACS analysis. In kind it is functional.

Description for SAOS-2: Cytotoxicity against p53 deficient human Saos2 cells assessed as cell growth inhibition after 24 hrs by MTT assay

On to `COc1cc(C(=O)O)ccc1NC(=O)[C@@H]1N[C@@H](CC(C)(C)C)[C@](C#N)(c2ccc(Cl)cc2F)[C@H]1c1cccc(Cl)c1F`, for which the inhibition entry in assay [1], in [3], in [4], in assay [5], in assay [7] and in assay [8] was “Active” each time. The outcome in the assay on U2OS [2] and in the assay with U2OS [6] was Active.

Turning to `COc1ccc(C2=N[C@H](c3ccc(Cl)cc3)[C@H](c3ccc(Cl)cc3)N2C(=O)N2CCNC(=O)C2)c(OC(C)C)c1`, the 50% inhibitory concentration (IC50) with U2OS [9] is 2.66 µM; with SAOS-2 it was 20.2 µM. For the same molecule, in [10], the “Ratio IC50” value is reported as 7.59.

As to `O=C(NCCN1CCOCC1)c1[nH]c2cc(Cl)ccc2c1-c1c(-c2ccc(F)cc2)ncn1Cc1ccc(Cl)cc1`, the result in the assay on U2OS [11], in the assay on U2OS [12], with U2OS [13] and in the assay on U2OS [14] was Active. For the same molecule, the IC50 worked out at 3.67 µM in the assay on U2OS [9] and 7.15 µM in the assay with SAOS-2.

As to `O=C(OCCN1CCOCC1)c1[nH]c2cc(Cl)ccc2c1-c1c(-c2ccc(F)cc2)ncn1Cc1ccc(Cl)cc1`, the result with U2OS [11] and in the assay on U2OS [14] was Active. Besides, the IC50 in the assay on U2OS [9] turned out to be 7.27 µM; with SAOS-2 it was 11.7 µM.

Turning to `O=C(O)c1[nH]c2cc(Cl)ccc2c1-c1c(-c2ccc(F)cc2)ncn1Cc1ccc(Cl)cc1`, the values for the IC50 in the assay with U2OS [9] and with SAOS-2 were 17.4 µM and 55.8 µM, respectively. For the same molecule, the outcome in the assay with U2OS [12] and in the assay on U2OS [13] was Active.

In the case of `O=C(O)CCC(=O)NCCCCCCOC(=O)c1[nH]c2cc(Cl)ccc2c1-c1c(-c2ccc(F)cc2)ncn1Cc1ccc(Cl)cc1`, the result in the assay on U2OS [11] and in the assay with U2OS [14] was Active.

For the molecule `O=C(O)CCC(=O)OCCCCCCOC(=O)c1[nH]c2cc(Cl)ccc2c1-c1c(-c2ccc(F)cc2)ncn1Cc1ccc(Cl)cc1`, the outcome in the assay with U2OS [12] and in the assay with U2OS [13] was Active.
